# Source: ChEMBL document CHEMBL6083263, “The Discovery of MORF-627, a Highly Selective Conformationally-Biased Zwitterionic Integrin αvβ6 Inhibitor for Fibrosis” (J Med Chem, 2024)
# Activity calls are given as the source filed them. The calls are words filed in the database; no cut-off is given here.
# How the values were obtained:
# Mus musculus [1] = assay: Antifibrotic activity against BLM-induced po dosed C57BL/6J mouse acute lung fibrosis model assessed as reduction in modified ashcroft score administered twice daily for 14 days; type: functional; parameters: scale not given: the % may be the effect or the level left; settings: time 14 day
# Integrin alpha-V/beta-6 [2] = target: T1, Integrin alpha-V/beta-6 (Homo sapiens, UniProt P06756+P18564); assay: Inhibition of Integrin alphaVbeta6 (unknown origin) mediated TGF-beta1 activation expressed in primary epithelial cells cocultured with idiopathic pulmonary fibroblast cells assessed as downregulation of FN mRNA expression measured after 72 hrs by qPCR assay; type: cell-based, Epithelial cell
# [3] = Half-life in cynomolgus […] at 5 mg/kg, po measured upto 24 hrs by LC/MS-MS analysis; type: ADME, organism-based, Macaca fascicularis; settings: in vivo
# [4] = Half-life in C57BL/6 mouse at 1 mg/kg, iv measured upto 24 hrs by LC/MS-MS analysis; type: ADME, organism-based; settings: in vivo
# [5] = Volume of distribution at steady state in cynomolgus monkey at 1 mg/kg, iv measured upto 24 hrs by LC/MS-MS analysis; type: ADME, organism-based, Macaca fascicularis; settings: in vivo, read-out: Vdss
# Integrin alpha-V/beta-6 [6] = target: T1, Integrin alpha-V/beta-6; assay: Inhibition of Integrin alphaVbeta6 (unknown origin) mediated TGF-beta1 activation expressed in primary epithelial cells cocultured with idiopathic pulmonary fibroblast cells assessed as downregulation of COL1A1 mRNA expression measured after 72 hrs by qPCR assay; type: cell-based, Epithelial cell
# Mus musculus [7] = assay: Antifibrotic activity against BLM-induced C57BL/6J mouse acute lung fibrosis model assessed as reduction in picrosirius red positive area at 1 to 10 mg/kg, po administered twice daily for 14 days; type: functional, organism-based; settings: dose 1-10 mg/kg, time 14.0 day
# Mus musculus [8] = assay: Antifibrotic activity against BLM-induced C57BL/6J mouse acute lung fibrosis model assessed as reduction in collagen structure index at 3 mg/kg, po administered twice daily for 14 days; type: functional, organism-based; settings: time 14.0 day
# [9] = Tmax in cynomolgus […] at 5 mg/kg, po measured upto 24 hrs by LC/MS-MS analysis; type: ADME, organism-based, Macaca fascicularis; settings: in vivo
# [10] = Tmax in Sprague-Dawley rat at 30 mg/kg, po measured upto 24 hrs by LC/MS-MS analysis; type: ADME, organism-based; settings: in vivo
# [11] = AUCinfinity in cynomolgus monkey at 1 mg/kg, iv measured upto 24 hrs by LC/MS-MS analysis; type: ADME, organism-based, Macaca fascicularis; settings: in vivo
# [12] = Half-life in Sprague-Dawley rat at 30 mg/kg, po measured upto 24 hrs by LC/MS-MS analysis; type: ADME, organism-based; settings: in vivo
# [13] = Oral bioavailability in Sprague-Dawley rat at 30 mg/kg measured upto 24 hrs by LC/MS-MS analysis; type: ADME, organism-based; settings: in vivo
# [14] = Oral bioavailability in C57BL/6 mouse at 30 mg/kg measured upto 24 hrs by LC/MS-MS analysis; type: ADME, organism-based; settings: in vivo
# [15] = Half-life in Beagle dog at 1 mg/kg, iv measured upto 24 hrs by LC/MS-MS analysis; type: ADME, organism-based, Canis lupus familiaris; settings: in vivo
# [16] = Cmax in C57BL/6 mouse at 30 mg/kg, po measured upto 24 hrs by LC/MS-MS analysis; type: ADME, organism-based; settings: in vivo
# [17] = Fraction of compound absorbed into portal vein (FaFg) in cynomolgus monkey at 30 mg/kg, po measured upto 24 hrs by LC/MS-MS analysis; type: ADME, organism-based, Macaca fascicularis; settings: in vivo
# [18] = Clearance in C57BL/6 mouse at 1 mg/kg, iv measured upto 24 hrs by LC/MS-MS analysis; type: ADME, organism-based; settings: in vivo
# [19] = Half-life in C57BL/6 mouse at 30 mg/kg, po measured upto 24 hrs by LC/MS-MS analysis; type: ADME, organism-based; settings: in vivo
# [20] = AUCinfinity in Sprague-Dawley rat at 30 mg/kg, po measured upto 24 hrs by LC/MS-MS analysis; type: ADME, organism-based; settings: in vivo
# [21] = Oral bioavailability in Sprague-Dawley rat at 10 mg/kg measured upto 24 hrs by LC/MS-MS analysis; type: ADME, organism-based; settings: in vivo
# [22] = Volume of distribution at steady state in C57BL/6 mouse at 1 mg/kg, iv measured upto 24 hrs by LC/MS-MS analysis; type: ADME, organism-based; settings: in vivo, read-out: Vdss
# [23] = AUCinfinity in Sprague-Dawley rat at 1 mg/kg, iv measured upto 24 hrs by LC/MS-MS analysis; type: ADME, organism-based; settings: in vivo
# Integrin alpha-V/beta-1 = Integrin alpha-V/beta-1 (Homo sapiens, UniProt P05556+P06756); assay: Displacement of fluorescein labeled ACRGDGWC from human Integrin alphaVbeta1 preincubated for 15 mins followed by fluorescein labeled ACRGDGWC addition and measured after 1 hr by fluorescence polarization assay; type: protein-complex assay
# [24] = Cmax in cynomolgus […] at 5 mg/kg, po measured upto 24 hrs by LC/MS-MS analysis; type: ADME, organism-based, Macaca fascicularis; settings: in vivo
# [25] = Volume of distribution at steady state in Beagle dog at 1 mg/kg, iv measured upto 24 hrs by LC/MS-MS analysis; type: ADME, organism-based, Canis lupus familiaris; settings: in vivo, read-out: Vdss
# Integrin alpha-V/beta-6 [26] = target: T1, Integrin alpha-V/beta-6; assay: Displacement of fluorescein labeled GRGDLGRL from human Integrin alphaVbeta6 preincubated for 15 mins followed by fluorescein labeled GRGDLGRL addition and measured after 1 hr by fluorescence polarization assay; type: protein-complex assay
# [27] = Octanol/water partition coefficient, logD of the compound; type: physicochemical
# Mus musculus [28] = assay: Antifibrotic activity against BLM-induced C57BL/6J mouse acute lung fibrosis model assessed as reduction in total collagen deposition at 3 mg/kg, po administered twice daily for 14 days; type: functional, organism-based; settings: time 14.0 day
# [29] = Half-life in Sprague-Dawley rat at 1 mg/kg, iv measured upto 24 hrs by LC/MS-MS analysis; type: ADME, organism-based; settings: in vivo
# [30] = Half-life in cynomolgus monkey at 1 mg/kg, iv measured upto 24 hrs by LC/MS-MS analysis; type: ADME, organism-based, Macaca fascicularis; settings: in vivo
# [31] = AUCinfinity in Beagle dog at 1 mg/kg, iv measured upto 24 hrs by LC/MS-MS analysis; type: ADME, organism-based, Canis lupus familiaris; settings: in vivo
# Mus musculus [32] = assay: Antifibrotic activity against BLM-induced C57BL/6J mouse acute lung fibrosis model assessed as reduction in modified ashcroft score at 1 to 10 mg/kg, po administered twice daily for 14 days; type: functional; parameters: scale not given: the % may be the effect or the level left; settings: dose 1-10 mg/kg, time 14 day
# [33] = Clearance in cynomolgus monkey at 1 mg/kg, iv measured upto 24 hrs by LC/MS-MS analysis; type: ADME, organism-based, Macaca fascicularis; settings: in vivo
# [34] = Oral bioavailability in cynomolgus […] at 5 mg/kg measured upto 24 hrs by LC/MS-MS analysis; type: ADME, organism-based, Macaca fascicularis; settings: in vivo
# Integrin alpha-V/beta-8 = Integrin alpha-V/beta-8 (Homo sapiens, UniProt P06756+P26012); assay: Displacement of fluorescein labeled GRGDLGRL from human Integrin alphaVbeta8 preincubated for 15 mins followed by fluorescein labeled GRGDLGRL addition and measured after 1 hr by fluorescence polarization assay; type: protein-complex assay
# Mus musculus [35] = assay: Antifibrotic activity against BLM-induced po dosed C57BL/6J mouse acute lung fibrosis model assessed as reduction in pSMAD2 level administered twice daily for 3 days; type: functional, organism-based; settings: 72 h
# [36] = Clearance in Sprague-Dawley rat at 1 mg/kg, iv measured upto 24 hrs by LC/MS-MS analysis; type: ADME, organism-based; settings: in vivo
# [37] = AUCinfinity in C57BL/6 mouse at 30 mg/kg, po measured upto 24 hrs by LC/MS-MS analysis; type: ADME, organism-based; settings: in vivo
# [38] = AUCinfinity in C57BL/6 mouse at 1 mg/kg, iv measured upto 24 hrs by LC/MS-MS analysis; type: ADME, organism-based; settings: in vivo
# Integrin alpha-V/beta-6 [39] = target: T1, Integrin alpha-V/beta-6; assay: Inhibition of Integrin alphaVbeta6 (unknown origin) mediated TGF-beta1 activation expressed in HEK293 cells cocultured with MLEC cells expressing luciferase reporter; type: cell-based
# Mus musculus [40] = assay: Antifibrotic activity against BLM-induced C57BL/6J mouse acute lung fibrosis model assessed as reduction in pSMAD2:total protein ratio at 0.1 to 100 mg/kg, po administered twice daily for 3 days; type: functional, organism-based; settings: dose 0.1-100 mg/kg, time 3.0 day
# [41] = Cmax in Sprague-Dawley rat at 30 mg/kg, po measured upto 24 hrs by LC/MS-MS analysis; type: ADME, organism-based; settings: in vivo
# [42] = Tmax in C57BL/6 mouse at 30 mg/kg, po measured upto 24 hrs by LC/MS-MS analysis; type: ADME, organism-based; settings: in vivo
# [43] = Volume of distribution at steady state in Sprague-Dawley rat at 1 mg/kg, iv measured upto 24 hrs by LC/MS-MS analysis; type: ADME, organism-based; settings: in vivo, read-out: Vdss
# Integrin alpha-V/beta-6 [44] = target: T1, Integrin alpha-V/beta-6; assay: Inhibition of Integrin alphaVbeta6 (unknown origin) mediated TGF-beta1 activation expressed in primary epithelial cells cocultured with idiopathic pulmonary fibroblast cells assessed as downregulation of COL3A1 mRNA expression measured after 72 hrs by qPCR assay; type: cell-based, Epithelial cell
# [45] = Fraction of compound absorbed into portal vein (FaFg) in Sprague-Dawley rat at 30 mg/kg, po measured upto 24 hrs by LC/MS-MS analysis; type: ADME, organism-based; settings: in vivo
# [46] = AUCinfinity in cynomolgus […] at 5 mg/kg, po measured upto 24 hrs by LC/MS-MS analysis; type: ADME, organism-based, Macaca fascicularis; settings: in vivo
# [47] = Fraction of compound absorbed into portal vein (FaFg) in C57BL/6 mouse at 30 mg/kg, po measured upto 24 hrs by LC/MS-MS analysis; type: ADME, organism-based; settings: in vivo
# Integrin alpha-V/beta-6 [48] = target: T1, Integrin alpha-V/beta-6; assay: Binding affinity to human Integrin alphaVbeta6 overexpressed in HEK293 cells incubated for 15 mins in presence of human serum by flow cytometry assay; type: cell-based
# Mus musculus [49] = assay: Antifibrotic activity against BLM-induced C57BL/6J mouse acute lung fibrosis model assessed as reduction in collagen fiber density at 3 mg/kg, po administered twice daily for 14 days; type: functional, organism-based; settings: time 14.0 day
# T1 sequence (P06756 31-889 limits assumed): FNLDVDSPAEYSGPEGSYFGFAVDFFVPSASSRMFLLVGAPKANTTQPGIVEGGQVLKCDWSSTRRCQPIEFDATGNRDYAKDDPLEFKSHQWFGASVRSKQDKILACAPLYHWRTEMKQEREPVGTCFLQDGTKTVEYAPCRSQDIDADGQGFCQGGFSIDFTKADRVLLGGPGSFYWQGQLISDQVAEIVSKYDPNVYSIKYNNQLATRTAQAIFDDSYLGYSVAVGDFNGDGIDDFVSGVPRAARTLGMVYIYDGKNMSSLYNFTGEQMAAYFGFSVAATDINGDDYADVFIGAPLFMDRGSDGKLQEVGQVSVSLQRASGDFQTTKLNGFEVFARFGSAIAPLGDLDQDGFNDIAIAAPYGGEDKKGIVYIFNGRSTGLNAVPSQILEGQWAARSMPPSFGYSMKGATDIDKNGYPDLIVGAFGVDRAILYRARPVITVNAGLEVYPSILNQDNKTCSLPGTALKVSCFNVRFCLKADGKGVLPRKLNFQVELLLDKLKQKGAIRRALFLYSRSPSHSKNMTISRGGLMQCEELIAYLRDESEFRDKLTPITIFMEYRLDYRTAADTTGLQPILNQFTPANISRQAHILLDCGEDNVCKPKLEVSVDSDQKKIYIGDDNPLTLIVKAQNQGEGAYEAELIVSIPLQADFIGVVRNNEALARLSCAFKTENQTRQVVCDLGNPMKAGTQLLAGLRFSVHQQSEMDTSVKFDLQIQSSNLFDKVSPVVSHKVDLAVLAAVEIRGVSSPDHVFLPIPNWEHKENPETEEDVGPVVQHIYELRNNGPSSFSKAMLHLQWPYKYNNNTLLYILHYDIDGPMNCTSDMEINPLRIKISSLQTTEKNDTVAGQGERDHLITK
# T1 sequence (P06756 891-1048 limits assumed): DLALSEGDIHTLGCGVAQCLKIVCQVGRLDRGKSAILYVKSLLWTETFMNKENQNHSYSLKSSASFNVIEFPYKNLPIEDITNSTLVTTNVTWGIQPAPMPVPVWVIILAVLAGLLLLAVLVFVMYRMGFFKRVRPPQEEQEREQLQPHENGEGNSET
# T1 sequence (P18564 22-788 limits assumed): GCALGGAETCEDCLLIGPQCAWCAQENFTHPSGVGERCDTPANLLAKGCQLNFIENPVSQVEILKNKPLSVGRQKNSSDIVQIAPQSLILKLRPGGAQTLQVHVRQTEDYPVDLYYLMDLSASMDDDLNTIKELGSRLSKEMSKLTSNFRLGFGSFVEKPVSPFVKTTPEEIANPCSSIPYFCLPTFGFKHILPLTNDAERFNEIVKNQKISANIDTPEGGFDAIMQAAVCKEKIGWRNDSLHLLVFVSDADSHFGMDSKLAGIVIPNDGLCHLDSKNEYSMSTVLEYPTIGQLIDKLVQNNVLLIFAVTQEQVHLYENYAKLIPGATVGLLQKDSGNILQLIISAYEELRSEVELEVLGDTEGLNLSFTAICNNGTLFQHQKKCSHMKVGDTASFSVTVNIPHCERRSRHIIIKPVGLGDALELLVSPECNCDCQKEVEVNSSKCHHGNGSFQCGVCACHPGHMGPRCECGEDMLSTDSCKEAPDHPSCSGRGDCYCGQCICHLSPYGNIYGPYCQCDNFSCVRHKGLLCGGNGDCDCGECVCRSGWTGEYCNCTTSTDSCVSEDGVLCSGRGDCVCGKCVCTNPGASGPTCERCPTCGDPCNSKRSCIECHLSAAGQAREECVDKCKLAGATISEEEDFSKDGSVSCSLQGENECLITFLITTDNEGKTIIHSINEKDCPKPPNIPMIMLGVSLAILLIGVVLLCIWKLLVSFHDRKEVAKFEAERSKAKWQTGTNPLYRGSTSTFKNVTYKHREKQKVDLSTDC
# Integrin alpha-V/beta-1, sequence (P05556 21-798 limits assumed): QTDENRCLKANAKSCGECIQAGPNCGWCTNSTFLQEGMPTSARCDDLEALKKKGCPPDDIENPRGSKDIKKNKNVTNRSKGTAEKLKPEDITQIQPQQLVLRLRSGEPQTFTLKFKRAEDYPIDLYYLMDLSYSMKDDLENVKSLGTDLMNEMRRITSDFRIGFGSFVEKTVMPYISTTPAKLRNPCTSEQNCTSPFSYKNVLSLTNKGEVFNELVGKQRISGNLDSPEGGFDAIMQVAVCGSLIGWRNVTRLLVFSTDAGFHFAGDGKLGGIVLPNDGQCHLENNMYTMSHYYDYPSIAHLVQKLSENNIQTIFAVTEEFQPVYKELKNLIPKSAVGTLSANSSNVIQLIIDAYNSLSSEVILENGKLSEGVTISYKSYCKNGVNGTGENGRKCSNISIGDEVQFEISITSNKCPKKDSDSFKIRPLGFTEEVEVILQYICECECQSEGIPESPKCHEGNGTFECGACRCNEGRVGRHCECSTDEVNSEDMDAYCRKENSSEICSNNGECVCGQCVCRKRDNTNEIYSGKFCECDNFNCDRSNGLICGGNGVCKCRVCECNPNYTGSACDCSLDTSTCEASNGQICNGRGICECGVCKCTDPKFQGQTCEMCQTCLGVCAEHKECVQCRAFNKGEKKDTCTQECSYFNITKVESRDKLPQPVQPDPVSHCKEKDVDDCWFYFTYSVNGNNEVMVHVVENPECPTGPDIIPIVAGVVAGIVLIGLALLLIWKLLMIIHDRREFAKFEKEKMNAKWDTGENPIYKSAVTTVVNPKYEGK
# Integrin alpha-V/beta-1, sequence (P06756 31-889 limits assumed): as the sequence (P06756 31-889 limits assumed) above
# Integrin alpha-V/beta-1, sequence (P06756 891-1048 limits assumed): as the sequence (P06756 891-1048 limits assumed) above
# Integrin alpha-V/beta-8, sequence (P06756 31-889 limits assumed): as the sequence (P06756 31-889 limits assumed) above
# Integrin alpha-V/beta-8, sequence (P06756 891-1048 limits assumed): as the sequence (P06756 891-1048 limits assumed) above
# Integrin alpha-V/beta-8, sequence (P26012 43-769 limits assumed): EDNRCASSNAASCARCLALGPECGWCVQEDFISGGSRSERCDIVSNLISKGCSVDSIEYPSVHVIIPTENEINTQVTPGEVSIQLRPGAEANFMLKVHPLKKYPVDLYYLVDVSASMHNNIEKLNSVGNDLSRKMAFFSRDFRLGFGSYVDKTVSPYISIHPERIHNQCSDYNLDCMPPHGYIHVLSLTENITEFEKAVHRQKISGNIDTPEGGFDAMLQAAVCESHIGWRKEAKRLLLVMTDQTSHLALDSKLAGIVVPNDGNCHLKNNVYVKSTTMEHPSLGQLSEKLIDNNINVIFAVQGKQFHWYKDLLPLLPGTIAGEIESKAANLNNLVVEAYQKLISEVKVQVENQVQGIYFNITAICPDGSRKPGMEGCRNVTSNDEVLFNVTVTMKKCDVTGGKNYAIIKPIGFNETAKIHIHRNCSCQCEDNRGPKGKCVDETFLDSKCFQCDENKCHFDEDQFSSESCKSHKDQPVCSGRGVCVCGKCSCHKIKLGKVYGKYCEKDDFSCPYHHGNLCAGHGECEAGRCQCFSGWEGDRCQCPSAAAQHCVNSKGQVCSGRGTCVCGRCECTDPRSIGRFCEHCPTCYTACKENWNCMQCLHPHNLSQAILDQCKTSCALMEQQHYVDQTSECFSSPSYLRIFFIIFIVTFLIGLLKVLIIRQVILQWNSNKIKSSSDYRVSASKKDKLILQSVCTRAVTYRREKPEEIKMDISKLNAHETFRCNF
compound,measurement,setting,value
Cc1cccc(-c2[nH]c(C(C)(C)C)nc2-c2ccc3nccnc3c2)n1,Activity,Mus musculus [1],37%
O=C(O)[C@H](c1cc(F)ccc1[C@@H]1CCC2(CC2)CO1)N1CC[C@@H](OCCCCc2ccc3c(n2)NCCC3)C1,IC50,Integrin alpha-V/beta-6 [2],20.3 nM
same,t1/2,[3],4.8 h
same,half-life,[4],114 min
same,Vd,[5],2.45 L/kg
same,IC50,Integrin alpha-V/beta-6 [6],1.8 nM
same,Activity,Mus musculus [7],Active; No Statistical Significant Activity
same,Activity,Mus musculus [8],Active
same,Tmax,[9],1 h
same,Tmax,[10],15 min
same,AUC(0-inf),[11],1590 ng·h/mL
same,t1/2,[12],1.8 h
same,bioavailability,[13],74%
same,bioavailability,[14],66%
same,half-life,[15],294 min
same,Cmax,[16],7600 ng/mL
same,FaFg,[17],21%
same,clearance,[18],18 mL/min/kg
same,t1/2,[19],2.6 h
same,AUC(0-inf),[20],14000 ng·h/mL
same,bioavailability,[21],22%
same,Vd,[22],2.07 L/kg
same,AUC(0-inf),[23],610 ng·h/mL
same,IC50,Integrin alpha-V/beta-1,490 nM
same,Cmax,[24],540 ng/mL
same,Vd,[25],1.84 L/kg
same,IC50,Integrin alpha-V/beta-6 [26],1.1 nM
same,logD,[27],2.2
same,Activity,Mus musculus [28],Active
same,half-life,[29],114 min
same,half-life,[30],294 min
same,AUC,[31],2970 ng·h/mL
same,Activity,Mus musculus [32],33%
same,clearance,[33],10.5 mL/min/kg
same,bioavailability,[34],16%
same,IC50,Integrin alpha-V/beta-8,330 nM
same,IC50,Mus musculus [35],8.3 nM
same,clearance,[36],28 mL/min/kg
same,AUC(0-inf),[37],19000 ng·h/mL
same,AUC(0-inf),[38],940 ng·h/mL
same,IC50,Integrin alpha-V/beta-6 [39],2.63 nM
same,Activity,Mus musculus [40],Active; Showed Significant Activity At 10 To 30 Mg/Kg
same,Cmax,[41],14000 ng/mL
same,Tmax,[42],15 min
same,Vd,[43],3.1 L/kg
same,IC50,Integrin alpha-V/beta-6 [44],12.8 nM
same,FaFg,[45],123%
same,AUC(0-inf),[46],1600 ng·h/mL
same,FaFg,[47],83%
same,IC50,Integrin alpha-V/beta-6 [48],9.2 nM
same,Activity,Mus musculus [49],Active
